By hepatocyte CLint is commonly meant a measure of how fast metabolising enzymes remove a compound, apart from limits set by blood flow. Low readings indicate slow turnover, high ones rapid turnover.

Where two headings read alike, the source gives them in different places. Where a SMILES comes first, the peptide text is derived from it. Side-chain parts run from the residue outwards. The star is where a group is joined. Nicotinoyl = O=C(c1cccnc1)*; Cbz = O=C(OCc1ccccc1)*

One series deals with T1, human AT2 receptor (Homo sapiens, UniProt P50052).
T1 construct: membranes prepared in house
T1 sequence (P50052 1-363): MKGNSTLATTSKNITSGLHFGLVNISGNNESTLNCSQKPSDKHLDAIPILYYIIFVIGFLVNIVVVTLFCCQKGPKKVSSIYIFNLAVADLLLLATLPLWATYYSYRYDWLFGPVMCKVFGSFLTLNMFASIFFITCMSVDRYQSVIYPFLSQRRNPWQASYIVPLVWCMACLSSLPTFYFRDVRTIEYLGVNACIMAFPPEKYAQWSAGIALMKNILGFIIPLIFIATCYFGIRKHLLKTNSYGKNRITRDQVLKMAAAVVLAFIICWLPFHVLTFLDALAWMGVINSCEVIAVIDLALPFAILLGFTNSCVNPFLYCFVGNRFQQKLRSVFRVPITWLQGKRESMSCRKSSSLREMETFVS
As to the kind of experiment: AT2 receptor binding ([125I]CGP 42112A displacement, CHO-K1 membranes). An excerpt:
Reagents were purchased from Sigma-Aldrich, unless otherwise specified. Dialyzed fetal bovine serum (FBS) was from Life Technologies (cat. no. 10073772). Valiscreen® human angiotensin AT2 receptor cell line (cat. no. ES-070-C), [^125I]CGP 42112A (cat. no. NEX324025UC) and MicroScint™ 40 (cat. no. 6013641) were purchased from PerkinElmer. CGP 42112A (cat. no. 2569) and PD 123,319 ditrifluoroacetate (cat. no. 1361) were from Tocris Biosciences.
• 1. Growth medium • EX-CELL® CHO DHFR^− medium • 10% FBS, dialysed • 1 mM sodium pyruvate • 2 mM L-glutamine • 2. Harvesting buffer • PBS • 2 mM EDTA • 3. Suspension buffer • 50 mM Tris-HCl, pH 7.4 • 10 mM EDTA • 4. Resuspension buffer • 50 mM Tris-HCl, pH 7.4 • 0.1 mM EDTA • 0.1% sucrose • 5. Binding assay buffer • 50 mM Tris-HCl, pH 7.4 • 5 mM MgCl2 • 1 mM EDTA • 0.1% gelatin • 6. Wash buffer • 50 mM Tris-HCl, pH 7.4 Procedure for Membrane Preparation • Valiscreen® CHO-K1 cells stably expressing the human AT2 receptor were cultured in growth medium. • Cells were seeded into T-175 flasks and grown to 70-80% confluence. • Medium was removed from confluent flasks and cells were washed with warm PBS. • Cells were harvested by incubating with harvesting buffer for 10 min at 37° C., and then transferred to a centrifuge tube on ice. • Cells were centrifuged at 200 g for 5 min at 4° C. • Cell pellets were homogenised in ice-cold suspension buffer. • Homogenates were centrifuged at 40,000 g for 15 min at 4° C. • Pellets were resuspended in ice-cold resuspension buffer and centrifuged at 40,000 g for 15 min at 4° C. • Final pellets were homogenised in ice-cold resuspension buffer. • Protein concentrations were determined by BCA assay method with BSA as standard. Compound Preparation
Compounds were prepared from 10 mM stock solutions in 100% DMSO. Dilutions were made using electronic multichannel pipettes.
• Compounds dilutions were prepared in 100% DMSO at 100× final assay concentration. • Compounds were diluted in 100% DMSO to the appropriate maximal concentration. • 30 μL compound was added to row A. • 21.6 μL of 100% DMSO was added to rows B-H. • Transfer 10 μL from row A into row B (half log dilution). • Transfer 10 μL from row B into row C (half log dilution). • Transfer 10 μL from row C into row D (half log dilution). • Transfer 10 μL from row D into row E (half log dilution). • Transfer 10 μL from row E into row F (half log dilution). • Transfer 10 μL from row F into row G (half log dilution). • Transfer 10 μL from row G into row H (half log dilution). Working Plate Preparation (96-Well Plate) • Compounds were diluted 10-fold in assay buffer. • 10 μL compound solution from dose plate was transferred to corresponding well of working plate. • 90 μL assay buffer was added to the wells of working plate. • Working solutions contained 10% DMSO in assay buffer (1% DMSO final assay concentration). Controls • Total binding (high control) was determined in the absence of unlabelled ligand. A solution of 10% DMSO in assay buffer was prepared. • Non-specific binding (low control) was determined in the presence of a vast excess (10 μM) of PD 123,319. 1 mM stock solution of PD 123,319 in water was diluted 10-fold with 10% DMSO in assay buffer. Assay Plate Preparation (96-Well Plate)
15 μL compound solution was transferred to duplicate wells of assay plate. 5 compounds were tested per plate. 15 μL control solutions were transferred to columns 1 and 12 of assay plate.

Series [1] can be described thus: Human hepatocyte stability assay. To be noted: cryopreserved hepatocytes, 1 μM test compound, 0.5 million cells/mL, pH 7.4, 37° C., 60 min; for half-life at 1 μM: read-out: T½. Format: in vitro ADME. The procedure:
A human hepatocyte (cryopreserved) incubation mixture containing, 0.5 million cells/mL and phosphate buffered saline (pH 7.4) was pre-incubated at 37° C. and the reaction then initiated by the addition of 1 μM test compound. The incubations were performed in duplicate. The final organic concentration was 1% (consisting of 90% acetonitrile and 10% DMSO). Positive control markers for Phase I and II metabolism were included. Samples were removed at 6 time-points over 60 min and each reaction terminated by the addition of methanol containing internal standard. After vortexing and centrifugation, the resultant supernatant was analysed by UPLC-MS.
Intrinsic clearance is calculated from the resulting concentration-time profile.
Where C(t) is the compound concentration at time t, C(0) is the starting concentration and k is the elimination rate constant.
The ln(concentration) vs time profile can be mathematically described by: ln C(t)=ln C(0)−kt
Where k represents the slope of the regression line.
Solving for k results in:
Once k is known, half-life (t½) can be calculated using: […]
Furthermore, CLint can be calculated by introducing the cell density ([cell]) in 10^6/ml: […]

[2] abbreviates: [125I]CGP 42112A 0.05 nM, membranes of CHO-K1 cells expressing human AT2 receptor, Ki from IC50 by Cheng-Prussoff equation, read-out: Ki.

For the compound `O=C(O)[C@@H]1C[C@H](N2CCCCc3cc(F)c(F)cc32)CN1C(=O)C(c1ccccc1)c1ccccc1` [Compound 27, (2S,4S)-4-(7,8-Difluoro-2,3,4,5-tetrahydro-1H-benzo[b]azepin-1-yl)-1-(2,2-diphenylacetyl)pyrrolidine-2-carboxylic acid], at human AT2 receptor (setting [2]), the Ki was 2.8 nM. Same read-out and setting: to `O=C(O)[C@@H]1C[C@H](N2CCc3ccccc3CC2)CN1C(=O)C(c1ccccc1)c1ccccc1` [Compound 45, (2S,4S)-1-(2,2-Diphenylacetyl)-4-(1,2,4,5-tetrahydro-3H-benzo[d]azepin-3-yl)pyrrolidine-2-carboxylic acid] belongs 28.2 nM. Still for that read-out and setting: under `O=C(C(c1ccccc1)c1ccccc1)N1C[C@@H](N2CCCCc3ccccc32)C[C@H]1c1nn[nH]n1` [Compound 35, 2,2-Diphenyl-1-((2S,4S)-4-(2,3,4,5-tetrahydro-1H-benzo[b]azepin-1-yl)-2-(2H-tetrazol-5-yl)pyrrolidin-1-yl)ethan-1-one] stands 36.2 nM; under `O=C(O)[C@@H]1C[C@@H](N2CCCCc3ccccc32)CN1C(=O)C(c1ccccc1)c1ccccc1` [Compound 22, (2S,4R)-1-(2,2-diphenylacetyl)-4-(2,3,4,5-tetrahydro-1H-benzo[b]azepin-1-yl)pyrrolidine-2-carboxylic acid], 9.8 nM. Still for that read-out and setting: under `O=C(O)[C@@H]1C[C@H](N2CCCOc3ccccc32)CN1C(=O)C(c1ccccc1)c1ccccc1` [Compound 7, (2S,4S)-4-(3,4-dihydrobenzo[b][1,4]oxazepin-5(2H)-yl)-1-(2,2-diphenylacetyl)pyrrolidine-2-carboxylic acid] stands 2 nM.

Turning to `O=C(O)[C@@H]1C[C@H](N2CCCOc3cc(F)ccc32)CN1C(=O)C(c1ccccc1)c1ccccc1` [Compound 9, (2S,4S)-1-(2,2-diphenylacetyl)-4-(8-fluoro-3,4-dihydrobenzo[b][1,4]oxazepin-5(2H)-yl)pyrrolidine-2-carboxylic acid], the Ki at human AT2 receptor (setting [2]) came to 3.1 nM.

On to `O=C(O)[C@@H]1C[C@H](N2CCCS(=O)(=O)c3ccccc32)CN1C(=O)C(c1ccccc1)c1ccccc1` [Compound 34, (2S,4S)-4-(1,1-Dioxido-3,4-dihydrobenzo[b][1,4]thiazepin-5(2H)-yl)-1-(2,2-diphenylacetyl)pyrrolidine-2-carboxylic acid], for which the Ki on human AT2 receptor (setting [2]) was determined as 10 nM. With `CC[C@H](C)[C@H](NC(=O)[C@@H]1CCCN1C(=O)[C@H](Cc1c[nH]cn1)NC(=O)[C@H](CCCCNC(=O)[C@H](CCCN=C(N)N)NC(=O)OCc1ccccc1)NC(=O)[C@H](Cc1ccc(O)cc1)NC(=O)c1cccnc1)C(=O)O` [CGP 42112A, reference compound] (Nicotinoyl-YK([Arg-Cbz])HPI-OH), on human AT2 receptor (standard compounds, mean±S.E.M., read-out: Dissociation constants (pKi) (converted)), the Ki is 0.178 nM.

For the compound `COc1ccc2c(c1)CCCCN2[C@H]1C[C@@H](C(=O)O)N(C(=O)C(c2ccccc2)c2ccccc2)C1` [Compound 4, (2S,4S)-1-(2,2-Diphenylacetyl)-4-(7-methoxy-2,3,4,5-tetrahydro-1H-benzo[b]azepin-1-yl)pyrrolidine-2-carboxylic acid], at human AT2 receptor (setting [2]), the Ki came to 8.8 nM. For the compound `C[C@@]1(C(=O)O)C[C@H](N2CCCOc3cc(F)c(F)cc32)CN1C(=O)C(c1ccccc1)c1ccccc1` [Compound 32, (2S,4S)-4-(7,8-Difluoro-3,4-dihydrobenzo[b][1,4]oxazepin-5(2H)-yl)-1-(2,2-diphenylacetyl)-2-methylpyrrolidine-2-carboxylic acid], in series [1], the hepatocyte CLint at 1 μM was less than 3 µL/min/1e6 cells and the half-life at 1 μM is more than 460 min. Moreover, the Ki at human AT2 receptor (setting [2]) was 3.7 nM. In the same order, the values of `O=C(NS(=O)(=O)C1CC1)[C@@H]1C[C@H](N2CCCOc3cc(F)c(F)cc32)CN1C(=O)C(c1ccccc1)c1ccccc1` [Compound 36, (2S,4S)—N-(Cyclopropylsulfonyl)-4-(7,8-difluoro-3,4-dihydrobenzo[b][1,4]oxazepin-5(2H)-yl)-1-(2,2-diphenylacetyl)pyrrolidine-2-carboxamide] are less than 3 µL/min/1e6 cells, more than 460 min and 2.6 nM. With `O=C(O)[C@@H]1C[C@H](N2CCCOc3cc(F)c(F)cc32)CN1C(=O)C(c1ccccc1)c1ccccc1` [Compound 21, (2S,4S)-4-(7,8-difluoro-3,4-dihydrobenzo[b][1,4]oxazepin-5(2H)-yl)-1-(2,2-diphenylacetyl)pyrrolidine-2-carboxylic acid], the Ki on human AT2 receptor (setting [2]) turned out to be 2.3 nM. On the same count and under the same terms, under `CN(C)S(=O)(=O)NC(=O)[C@@H]1C[C@H](N2CCCCc3ccccc32)CN1C(=O)C(c1ccccc1)c1ccccc1` [Compound 44, (2S,4S)—N—(N,N-Dimethylsulfamoyl)-1-(2,2-diphenylacetyl)-4-(2,3,4,5-tetrahydro-1H-benzo[b]azepin-1-yl)pyrrolidine-2-carboxamide] stands 16.9 nM; under `O=C(O)[C@@H]1C[C@@H](N2CCCOc3cc(F)c(F)cc32)CN1C(=O)C(c1ccccc1)c1ccccc1` [Compound 24, (2S,4R)-4-(7,8-Difluoro-3,4-dihydrobenzo[b][1,4]oxazepin-5(2H)-yl)-1-(2,2-diphenylacetyl)pyrrolidine-2-carboxylic acid], 1.4 nM.

Values taken from US10065943B2, “Pyrrolidine derivatives as angiotensin II type 2 antagonists” (NOVARTIS AG, priority 2015, dated 2018).
